Patent publication US20080293712A1, “Benzo[C][2,7]Naphtyridine Derivatives, Methods of Making Thereof and Methods of Use Thereof” (WYETH, priority 2007, published 2008)

How the values were obtained:
Format in all cases: biochemical
PDK-1 = target: T1, PDK-1 (Homo sapiens, UniProt O15530); assay: PDK-1 kinase inhibition ELISA assay (phosphorylation of His6-tagged SGK1 S422D by PDK-1); conditions: PDK-1 ELISA, Table 11; read-out: Average IC50
T1 sequence (O15530 1-556): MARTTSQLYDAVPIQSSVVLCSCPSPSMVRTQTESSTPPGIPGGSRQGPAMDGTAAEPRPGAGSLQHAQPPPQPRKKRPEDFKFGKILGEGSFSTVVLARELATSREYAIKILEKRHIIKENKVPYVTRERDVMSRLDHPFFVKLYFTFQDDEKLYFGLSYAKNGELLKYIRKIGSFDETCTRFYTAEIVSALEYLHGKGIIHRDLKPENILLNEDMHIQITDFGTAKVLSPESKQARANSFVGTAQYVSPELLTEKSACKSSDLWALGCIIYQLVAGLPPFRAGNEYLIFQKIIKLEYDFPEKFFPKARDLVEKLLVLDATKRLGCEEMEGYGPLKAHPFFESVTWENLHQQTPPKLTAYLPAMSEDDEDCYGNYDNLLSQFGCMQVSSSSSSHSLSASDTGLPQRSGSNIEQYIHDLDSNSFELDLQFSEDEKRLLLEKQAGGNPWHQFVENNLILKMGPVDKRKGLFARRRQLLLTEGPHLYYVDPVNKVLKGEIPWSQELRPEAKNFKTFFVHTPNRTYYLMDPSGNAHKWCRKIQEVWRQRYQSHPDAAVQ

S6K = S6K (Homo sapiens, UniProt P23443); assay: S6K kinase inhibition, Z'-LYTE FRET assay; conditions: 100 μM ATP
Sequence of S6K (P23443 whole entry): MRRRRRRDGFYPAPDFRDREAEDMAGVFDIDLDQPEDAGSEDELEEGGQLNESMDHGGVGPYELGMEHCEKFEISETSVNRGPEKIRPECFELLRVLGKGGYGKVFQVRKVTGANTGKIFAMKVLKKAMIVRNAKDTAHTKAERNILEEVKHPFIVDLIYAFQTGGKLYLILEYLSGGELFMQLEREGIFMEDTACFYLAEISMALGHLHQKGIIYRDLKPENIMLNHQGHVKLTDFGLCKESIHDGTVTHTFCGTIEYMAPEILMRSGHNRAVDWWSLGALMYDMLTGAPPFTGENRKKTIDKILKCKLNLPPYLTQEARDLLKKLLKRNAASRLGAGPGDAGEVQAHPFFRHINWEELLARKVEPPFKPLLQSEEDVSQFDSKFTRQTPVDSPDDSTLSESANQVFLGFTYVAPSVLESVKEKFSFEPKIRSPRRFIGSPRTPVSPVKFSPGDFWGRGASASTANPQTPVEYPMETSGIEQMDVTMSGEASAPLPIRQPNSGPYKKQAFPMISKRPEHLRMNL
Text: (§1) The ability of illustrative Benzo[c][2,7]naphthyridine Derivatives to inhibit PKA, Akt1, S6K in vitro can be determined using a Fluorescence Resonance Energy Transfer (FRET) assay, such as a Z′-LYTE™ Kinase Assay Platform, commercially available from Invitrogen (c.f. Rodems et al., ASSAY Drug Devel. Technol. 1:9-19 (2002) and Zhang et al., J. Biomol. Screen. 4:67-73 (1999)). Z′-Lyte™ assay is an in vitro FRET-based assay that utilizes differential sensitivity of phosphorylated and non-phosphorylated peptides to proteolytic cleavage. The peptide substrate (also available from Invitrogen for each of PKA, Akt1 and S6K) is labeled with two different fluorophores, a fluorescence donor at one end of the peptide and a fluorescence acceptor at the other end of the peptide. In the primary kinase reaction, the kinase phosphorylates the peptide substrate in the presence of ATP. In the secondary reaction, a site-specific protease recognizes and cleaves non-phosphorylated peptides, but not phosphorylated peptides. Cleavage disrupts FRET between the donor and acceptor fluorophores on the peptide, whereas uncleaved phosphorylated peptides maintain FRET. Based on a formula that uses the ratio of donor emission (at 460 nm) to acceptor emission (at […]) after excitation of the donor fluorophore at 400 nm, the extent of phosphorylation of the peptide substrates is calculated. IC50 values of illustrative Benzo[c][2,7]naphthyridine Derivatives, shown in Table 12, are calculated using LSW Data Analysis package add-in for Excel (Microsoft).

PKA = PKA (Homo sapiens, UniProt P17612); assay: PKA kinase inhibition, Z'-LYTE FRET assay
Akt1 = Akt1 (Homo sapiens, UniProt P31749); assay: Akt1 kinase inhibition, Z'-LYTE FRET assay; conditions: 100 μM ATP
Sequence of Akt1 (P31749 whole entry, species assumed): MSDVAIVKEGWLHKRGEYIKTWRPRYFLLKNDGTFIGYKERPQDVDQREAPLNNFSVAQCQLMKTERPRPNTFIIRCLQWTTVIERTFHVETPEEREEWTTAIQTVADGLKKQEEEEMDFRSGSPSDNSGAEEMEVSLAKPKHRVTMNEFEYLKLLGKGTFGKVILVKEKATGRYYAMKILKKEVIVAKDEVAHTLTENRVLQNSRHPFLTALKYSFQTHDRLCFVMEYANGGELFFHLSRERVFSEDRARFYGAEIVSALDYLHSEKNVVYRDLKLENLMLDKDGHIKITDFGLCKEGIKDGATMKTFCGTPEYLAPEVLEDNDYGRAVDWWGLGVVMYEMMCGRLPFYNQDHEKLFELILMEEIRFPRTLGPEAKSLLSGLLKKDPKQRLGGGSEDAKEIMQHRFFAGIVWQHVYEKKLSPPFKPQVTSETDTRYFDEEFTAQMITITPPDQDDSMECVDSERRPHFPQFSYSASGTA
Text: as §1

SMILES | IC50 (PDK-1) [µM] | IC50 (S6K) [µM] | IC50 (PKA; 20 μM ATP) [µM] | IC50 (PKA; 100 μM ATP) [µM] | IC50 (Akt1) [µM]
COc1cc2ncc3c(N)nc(-c4cncc(OC5CCNCC5)c4)cc3c2cc1OC [Ib-40, 8,9-Dimethoxy-2-[5-(piperidin-4-yloxy)pyridin-3-yl]benzo[c]-2,7-naphthyridin-4-amine] | 0.117 | > 2 | > 4 | > 2 | 
COc1cc2ncc3c(N)nc(-c4cncc(OC[C@H](N)Cc5cccc(C(F)(F)F)c5)c4)cc3c2cc1OC [Ib-28, 2-[5-({(2R)-2-amino-3-[3-(trifluoromethyl)phenyl]propyl}oxy)pyridin-3-yl]-8,9-dimethoxybenzo[c]-2,7-naphthyridin-4-amine] | 0.021 | 0.763 |  |  | 
COc1cc2ncc3c(N)nc(-c4cncc(OC[C@@H](C)N)c4)cc3c2cc1OC [Ib-30, 2-(5-{[(2R)-2-aminopropyl]oxy}pyridin-3-yl)-8,9-dimethoxybenzo[c]-2,7-naphthyridin-4-amine] | 0.002 | 0.097 |  |  | 
COc1cc2ncc3c(N)nc(-c4cncc(OC[C@@H](N)CN(C)Cc5ccccc5)c4)cc3c2cc1OC [Ib-27, (2S)-3-{[5-(4-amino-8,9-dimethoxybenzo[c]-2,7-naphthyridin-2-yl)pyridin-3-yl]oxy}-N1-benzyl-N1-methylpropane-1,2-diamine] | 0.006 | 0.037 to 0.043 |  | 0.11 to 0.217 | 
COc1cc2ncc3c(N)nc(-c4cncc(OC[C@@H](N)Cc5ccc(Cl)c(Cl)c5)c4)cc3c2cc1OC [Ib-44, 2-(5-{[(2S)-2-amino-3-(3,4-dichlorophenyl)propyl]oxy}pyridin-3-yl)-8,9-dimethoxybenzo[c]-2,7-naphthyridin-4-amine] | 0.006 | 0.019 | < 0.032 |  | 
COCCN(C[C@H](N)COc1cncc(-c2cc3c(cnc4cc(OC)c(OC)cc43)c(N)n2)c1)c1ccccc1 [Ib-34, (2S)-3-{[5-(4-amino-8,9-dimethoxybenzo[c]-2,7-naphthyridin-2-yl)pyridin-3-yl]oxy}-N1-(2-methoxyethyl)-N1-phenylpropane-1,2-diamine] | 0.006 | 0.061 to 0.13 | < 0.032 | 0.116 | 
COc1cc2ncc3c(N)nc(-c4cncc(OC[C@@H](N)Cc5cccc(Cl)c5)c4)cc3c2cc1OC [Ib-29, 2-(5-{[(2S)-2-amino-3-(3-chlorophenyl)propyl]oxy}pyridin-3-yl)-8,9-dimethoxybenzo[c]-2,7-naphthyridin-4-amine] | 0.008 | 0.076 |  |  | 
CCN1CCN(CCC#Cc2ccc3c(c2)ncc2c(N)nc(-n4ccnc4)cc23)CC1 [Ia-35, 8-[4-(4-ethylpiperazin-1-yl)but-1-yn-1-yl]-2-(1H-imidazol-1-yl)benzo[c]-2,7-naphthyridin-4-amine] | 0.493 |  | 6 |  | 2.9
COc1cc2c(cc1OCCCN1CCN(C)CC1)ncc1c(N)nc(-n3ccnc3)cc12 [Ia-14, 2-(1H-imidazol-1-yl)-9-methoxy-8-(3-(4-methylpiperazin-1-yl)propoxy)benzo[c][2,7]naphthyridin-4-amine] | 0.356 |  | > 10 |  | 0.35
CCOc1cc2ncc3c(N)nc(-n4ccnc4)cc3c2cc1NC(C)=O [Ia-29, N-[4-amino-8-ethoxy-2-(1H-imidazol-1-yl)benzo[c]-2,7-naphthyridin-9-yl]acetamide] | 0.385 |  | > 5 |  | > 5
COCCOc1cc2ncc3c(N)nc(-n4cnc(-c5ccccc5)c4)cc3c2cc1OC [Ia-41, 9-Methoxy-8-(2-methoxyethoxy)-2-(4-phenyl-1H-imidazol-1-yl)benzo[c]-2,7-naphthyridin-4-amine] | 2.03 |  | > 20 |  | 18
CC(C)(C)OC(=O)N[C@H](COc1cncc(-c2cc3c(cnc4cc(Br)ccc43)c(N)n2)c1)Cc1ccccc1 [Ia-7, tert-butyl ((1S)-2-{[5-(4-amino-8-bromobenzo[c]-2,7-naphthyridin-2-yl)pyridin-3-yl]oxy}-1-benzylethyl)carbamate] | > 5 |  | > 20 |  | > 20
COc1cc2ncc3c(N)nc(-c4cncc(OC[C@H](C)N)c4)cc3c2cc1OC [Ib-31, 2-(5-{[(2S)-2-aminopropyl]oxy}pyridin-3-yl)-8,9-dimethoxybenzo[c]-2,7-naphthyridin-4-amine] | 0.006 | 0.235 |  |  | 
COc1cc2ncc3c(N)nc(-n4cnc(CO)c4)cc3c2cc1OC [Ib-69, [1-(4-Amino-8,9-dimethoxybenzo[c]-2,7-naphthyridin-2-yl)-1H-imidazol-4-yl]methanol] | 0.205 |  | > 20 |  | 2.8
Nc1nc(-n2ccnc2)cc2c1cnc1cc(C#CCCn3ccnc3)ccc12 [Ia-30, 2-(1H-imidazol-1-yl)-8-[4-(1H-imidazol-1-yl)but-1-yn-1-yl]benzo[c]-2,7-naphthyridin-4-amine] | 0.179 |  | > 20 |  | 15
COc1cc2ncc3c(N)nc(-c4cncc(OC[C@@H](N)Cc5ccc(OCc6ccccc6)cc5)c4)cc3c2cc1OC [Ib-54, 2-[5-({(2S)-2-amino-3-[4-(benzyloxy)phenyl]propyl}oxy)pyridin-3-yl]-8,9-dimethoxybenzo[c]-2,7-naphthyridin-4-amine] | 0.212 |  | > 10 |  | 3

More lines, now with the values ahead:

IC50 (PDK-1) [µM] | IC50 (S6K) [µM] | IC50 (PKA; 20 μM ATP) [µM] | IC50 (PKA; 100 μM ATP) [µM] | IC50 (Akt1) [µM] | SMILES
0.008 | 0.065 | < 0.032 | 0.179 |  | COc1cc2ncc3c(N)nc(-c4cncc(OC[C@@H](N)CN5CCc6ccccc65)c4)cc3c2cc1OC [Ib-46, 2-(5-{[(2S)-2-amino-3-(2,3-dihydro-1H-indol-1-yl)propyl]oxy}pyridin-3-yl)-8,9-dimethoxybenzo[c]-2,7-naphthyridin-4-amine]
0.85 | > 2 |  | > 2 |  | COc1cc2ncc3c(N)nc(-c4cncc(C#CCN(C)Cc5ccccc5)c4)cc3c2cc1OC [Ib-32, 2-(5-{3-[Benzyl(methyl)amino]prop-1-yn-1-yl}pyridin-3-yl)-8,9-dimethoxybenzo[c]-2,7-naphthyridin-4-amine]
0.025 | 0.725 | 0.65 | > 2 |  | COc1cc2ncc3c(N)nc(-c4cncc(OC[C@@H](N)CN5CCOCC5)c4)cc3c2cc1OC [Ib-45, 2-(5-{[(2S)-2-amino-3-morpholin-4-ylpropyl]oxy}pyridin-3-yl)-8,9-dimethoxybenzo[c]-2,7-naphthyridin-4-amine]
0.018 | 0.523 to 0.821 | 0.85 | > 2 |  | COc1cc2ncc3c(N)nc(-c4cncc(OC[C@@H](N)CN5CCNC(=O)C5)c4)cc3c2cc1OC [Ib-37, 4-((2S)-2-amino-3-{[5-(4-amino-8,9-dimethoxybenzo[c]-2,7-naphthyridin-2-yl)pyridin-3-yl]oxy}propyl)piperazin-2-one]
0.498 |  | > 10 |  | 0.38 | COc1cc2c(cc1OCCCN1CCCC1)ncc1c(N)nc(-n3ccnc3)cc12 [Ia-15, 2-(1H-imidazol-1-yl)-9-methoxy-8-(3-(pyrrolidin-1-yl)propoxy)benzo[c][2,7]naphthyridin-4-amine]
> 5 |  | > 20 |  | > 20 | CC(C)(C)OC(=O)N[C@H](COc1cncc(-c2cc3c(cnc4cc(C#CCCn5ccnc5)ccc43)c(N)n2)c1)Cc1ccccc1 [Ia-6, tert-Butyl-{(1S)-2-[(5-{4-amino-8-[4-(1H-imidazol-1-yl)but-1-yn-1-yl]benzo[c]-2,7-naphthyridin-2-yl}pyridin-3-yl)oxy]-1-benzylethyl}carbamate]
> 3 |  | > 10 |  | > 10 | CCN1CCN(CCC#Cc2ccc3ncc4c(N)nc(-n5ccnc5)cc4c3c2)CC1 [Ia-18, 9-[4-(4-Ethylpiperazin-1-yl)but-1-yn-1-yl]-2-(1H-imidazol-1-yl)benzo[c]-2,7-naphthyridin-4-amine]
0.617 |  | > 20 |  | 16 | CCOc1cc2ncc3c(N)nc(-n4ccnc4)cc3c2cc1NC(=O)Nc1ccc(N(C)C)cc1 [Ia-27, N-[4-amino-8-ethoxy-2-(1H-imidazol-1-yl)benzo[c]-2,7-naphthyridin-9-yl]-N′-[4-(dimethylamino)phenyl]urea]
